The results in this text go back to patent publication US20230146675A1, “PYRIMIDO[5,4-d]PYRIMIDINE DERIVATIVES AS ENT INHIBITORS FOR THE TREATMENT OF CANCERS, AND COMBINATION THEREOF WITH ADENOSINE RECEPTOR ANTAGONISTS” (ITEOS BELGIUM SA, priority 2020, published 2023).

Structures are written as SMILES.

For this assay, the target named is T1, human ENT1 (Homo sapiens, UniProt Q99808).
T1 sequence (Q99808 1-456): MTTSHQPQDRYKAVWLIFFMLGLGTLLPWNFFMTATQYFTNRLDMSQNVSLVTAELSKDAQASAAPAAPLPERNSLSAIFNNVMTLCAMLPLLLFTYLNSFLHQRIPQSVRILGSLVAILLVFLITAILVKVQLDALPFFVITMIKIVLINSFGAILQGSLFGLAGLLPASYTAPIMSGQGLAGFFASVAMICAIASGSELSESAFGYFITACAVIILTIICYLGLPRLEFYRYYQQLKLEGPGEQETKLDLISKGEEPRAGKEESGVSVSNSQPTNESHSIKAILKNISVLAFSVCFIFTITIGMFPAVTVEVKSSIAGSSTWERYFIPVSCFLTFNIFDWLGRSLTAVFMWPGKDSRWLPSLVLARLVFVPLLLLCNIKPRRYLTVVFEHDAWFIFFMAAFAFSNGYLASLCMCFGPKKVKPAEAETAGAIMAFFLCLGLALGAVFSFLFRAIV
Description: ENT1 binding assay (competition with Sahenta-DY647 on JAR cells). Conditions: binned IC50. The arrangement: JAR cells expressing ENT1 were bought from ATCC; host or cells: JAR cells. In outline:
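JAR cells were incubated with test compounds and the fluorescent ligand Sahenta-DY647 in competition. Plates were washed twice by centrifugation (4 min, 400 rcf, 4 °C). Binding potency was derived from the final fluorescence.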
For orientation: IC50 means the concentration needed to halve the response being measured. The low end stands for greater potency in that assay, the high end for weaker potency in that assay. As to `COCCN(CCOC)c1nc(N2CCC(F)(F)CC2)c2nc(N(CCOC)CCOC)nc(N3CCC(OC)CC3)c2n1` [Compound 200, 4-(4,4-difluoropiperidin-1-yl)-N2,N2,N6,N6-tetrakis(2-methoxyethyl)-8-(4-methoxypiperidin-1-yl)pyrimido[5,4-d]pyrimidine-2,6-diamine], the IC50 was < 100 nM.

`COCCN(CCOC)c1nc(N2CCC(C)(OC)CC2)c2nc(N(CCOC)CCOC)nc(N3CCC(C)(OC)CC3)c2n1` [Compound 201, 4,8-bis(4-methoxy-4-methylpiperidin-1-yl)-N2,N2,N6,N6-tetrakis(2-methoxyethyl)pyrimido[5,4-d]pyrimidine-2,6-diamine] had a half-inhibitory concentration (IC50) of 100 to 500 nM.

Consider `COCCOC1CCN(c2nc(N(CCOC)CCOC)nc3c(N4CCC(OC)CC4)nc(N(CCOC)CCOC)nc23)CC1` [Compound 202, 4-(4-(2-methoxyethoxy)piperidin-1-yl)-N2,N2,N6,N6-tetrakis(2-methoxyethyl)-8-(4-methoxypiperidin-1-yl)pyrimido[5,4-d]pyrimidine-2,6-diamine], for which the 50% inhibitory concentration (IC50) was in the range of 500 to 1000 nM. In turn, `COCCN(CCOC)c1nc(N2CCN(C)C(=O)C2)c2nc(N(CCOC)CCOC)nc(NCc3cccc(C(N)=O)c3)c2n1` [Compound 203, 3-(((2,6-bis(bis(2-methoxyethyl)amino)-8-(4-methyl-3-oxopiperazin-1-yl)pyrimido[5,4-d]pyrimidin-4-yl)amino)methyl)benzamide] had an IC50 of 100 to 500 nM. `COCCN(CCOC)c1nc(N2CCN(C)C(=O)C2)c2nc(N(CCOC)CCOC)nc(NCc3cccc(S(N)(=O)=O)c3)c2n1` [Compound 204, 3-(((2,6-bis(bis(2-methoxyethyl)amino)-8-(4-methyl-3-oxopiperazin-1-yl)pyrimido[5,4-d]pyrimidin-4-yl)amino)methyl)benzenesulfonamide] gave an IC50 of 100 to 500 nM. In the case of `COCCN(CCOC)c1nc(N2CCN(C)C(=O)C2)c2nc(N(CCOC)CCOC)nc(NCc3cccc(C#N)c3)c2n1` [Compound 205, 3-(((2,6-bis(bis(2-methoxyethyl)amino)-8-(4-methyl-3-oxopiperazin-1-yl)pyrimido[5,4-d]pyrimidin-4-yl)amino)methyl)benzonitrile] it was < 100 nM; in that of `COCCN(CCOC)c1nc(N2CCN(C)C(=O)C2)c2nc(N(CCOC)CCOC)nc(N3CCC(F)(F)CC3)c2n1` [Compound 206, 4-(2,6-bis(bis(2-methoxyethyl)amino)-8-(4,4-difluoropiperidin-1-yl)pyrimido[5,4-d]pyrimidin-4-yl)-1-methylpiperazin-2-one], < 100 nM. In the case of `COCCN(CCOC)c1nc(N2CCN(C)C(=O)C2)c2nc(N(CCOC)CCOC)nc(NCc3cccc(F)c3)c2n1` [Compound 207, 4-(2,6-bis(bis(2-methoxyethyl)amino)-8-((3-fluorobenzyl)amino)pyrimido[5,4-d]pyrimidin-4-yl)-1-methylpiperazin-2-one], the half-inhibitory concentration (IC50) was < 100 nM. Turning to `COCCN(CCOC)c1nc(N2CCN(C)C(=O)C2)c2nc(N(CCOC)CCOC)nc(NCc3cccc(Cl)c3)c2n1` [Compound 208, 4-(2,6-bis(bis(2-methoxyethyl)amino)-8-((3-chlorobenzyl)amino)pyrimido[5,4-d]pyrimidin-4-yl)-1-methylpiperazin-2-one], the IC50 was < 100 nM.

With `COCCN(CCOC)c1nc(N2CCN(C)C(=O)C2)c2nc(N(CCOC)CCOC)nc(NCc3cccc(OC)c3)c2n1` [Compound 209, 4-(2,6-bis(bis(2-methoxyethyl)amino)-8-((3-methoxybenzyl)amino)pyrimido[5,4-d]pyrimidin-4-yl)-1-methylpiperazin-2-one], the concentration for half-maximal inhibition (IC50) was < 100 nM. In the case of `COCCN(CCOC)c1nc(N2CCN(C)C(=O)C2)c2nc(N(CCOC)CCOC)nc(NCc3cccc(OC(F)(F)F)c3)c2n1` [Compound 210, 4-(2,6-bis(bis(2-methoxyethyl)amino)-8-((3-(trifluoromethoxy)benzyl)amino)pyrimido[5,4-d]pyrimidin-4-yl)-1-methylpiperazin-2-one] it was < 100 nM; in that of `COCCN(CCOC)c1nc(N2CCN(C)C(=O)C2)c2nc(N(CCOC)CCOC)nc(NCc3ccc(F)c(C#N)c3)c2n1` [Compound 211, 5-(((2,6-bis(bis(2-methoxyethyl)amino)-8-(4-methyl-3-oxopiperazin-1-yl)pyrimido[5,4-d]pyrimidin-4-yl)amino)methyl)-2-fluorobenzonitrile], < 100 nM. In the case of `COCCN(CCOC)c1nc(N2CCN(C)C(=O)C2)c2nc(N(CCOC)CCOC)nc(NCc3cccc(S(C)(=O)=O)c3)c2n1` [Compound 212, 4-(2,6-bis(bis(2-methoxyethyl)amino)-8-((3-(methylsulfonyl)benzyl)amino)pyrimido[5,4-d]pyrimidin-4-yl)-1-methylpiperazin-2-one] it was 500 to 1000 nM; in that of `COCCN(CCOC)c1nc(N2CCN(C)C(=O)C2)c2nc(N(CCOC)CCOC)nc(NCc3ccc(F)c(F)c3)c2n1` [Compound 213, 4-(2,6-bis(bis(2-methoxyethyl)amino)-8-((3,4-difluorobenzyl)amino)pyrimido[5,4-d]pyrimidin-4-yl)-1-methylpiperazin-2-one], < 100 nM. In the case of `CCCNc1nc(N(CCOC)CCOC)nc2c(N3CCN(C)C(=O)C3)nc(N(CCOC)CCOC)nc12` [Compound 214, 4-(2,6-bis(bis(2-methoxyethyl)amino)-8-(propylamino)pyrimido[5,4-d]pyrimidin-4-yl)-1-methylpiperazin-2-one] it was 100 to 500 nM; in that of `COCCN(CCOC)c1nc(N2CCN(C)C(=O)C2)c2nc(N(CCOC)CCOC)nc(NCC(C)C)c2n1` [Compound 215, 4-(2,6-bis(bis(2-methoxyethyl)amino)-8-(isobutylamino)pyrimido[5,4-d]pyrimidin-4-yl)-1-methylpiperazin-2-one], 100 to 500 nM.

Compound `COCCN(CCOC)c1nc(N2CCN(C)C(=O)C2)c2nc(N(CCOC)CCOC)nc(N3CCN(c4ncn(C)n4)CC3)c2n1` [Compound 216, 4-(2,6-bis(bis(2-methoxyethyl)amino)-8-(4-(1-methyl-1H-1,2,4-triazol-3-yl)piperazin-1-yl)pyrimido[5,4-d]pyrimidin-4-yl)-1-methylpiperazin-2-one] gave an IC50 of 100 to 500 nM. For the compound `COCCN(CCOC)c1nc(N2CCS(=O)(=O)CC2)c2nc(N(CCOC)CCOC)nc(N3CCN(c4ncn(C)n4)CC3)c2n1` [Compound 217, 4-(2,6-bis(bis(2-methoxyethyl)amino)-8-(4-(1-methyl-1H-1,2,4-triazol-3-yl)piperazin-1-yl)pyrimido[5,4-d]pyrimidin-4-yl)thiomorpholine 1,1-dioxide], the IC50 fell in the range of 100 to 500 nM. In the case of `CCCNc1nc(N(CCOC)CCOC)nc2c(N3CCN(c4ncn(C)n4)CC3)nc(N(CCOC)CCOC)nc12` [Compound 218, N2,N2,N6,N6-tetrakis(2-methoxyethyl)-8-(4-(1-methyl-1H-1,2,4-triazol-3-yl)piperazin-1-yl)-N4-propylpyrimido[5,4-d]pyrimidine-2,4,6-triamine] it was 100 to 500 nM; in that of `COCCN(CCOC)c1nc(N2CCN(c3ncn(C)n3)CC2)c2nc(N(CCOC)CCOC)nc(NCC(C)C)c2n1` [Compound 219, N4-isobutyl-N2,N2,N6,N6-tetrakis(2-methoxyethyl)-8-(4-(1-methyl-1H-1,2,4-triazol-3-yl)piperazin-1-yl)pyrimido[5,4-d]pyrimidine-2,4,6-triamine], 100 to 500 nM; in that of `COCCN(CCOC)c1nc(N2CCN(c3ncn(C)n3)CC2)c2nc(N(CCOC)CCOC)nc(NCc3cccc(F)c3)c2n1` [Compound 220, N4-(3-fluorobenzyl)-N2,N2,N6,N6-tetrakis(2-methoxyethyl)-8-(4-(1-methyl-1H-1,2,4-triazol-3-yl)piperazin-1-yl)pyrimido[5,4-d]pyrimidine-2,4,6-triamine], < 100 nM.

In the case of `COCCN(CCOC)c1nc(N2CCN(c3ncn(C)n3)CC2)c2nc(N(CCOC)CCOC)nc(NCc3cccc(Cl)c3)c2n1` [Compound 221, N4-(3-chlorobenzyl)-N2,N2,N6,N6-tetrakis(2-methoxyethyl)-8-(4-(1-methyl-1H-1,2,4-triazol-3-yl)piperazin-1-yl)pyrimido[5,4-d]pyrimidine-2,4,6-triamine], the half-inhibitory concentration (IC50) was < 100 nM.

Regarding `COCCN(CCOC)c1nc(N2CCN(c3ncn(C)n3)CC2)c2nc(N(CCOC)CCOC)nc(NCc3cccc(OC)c3)c2n1` [Compound 222, N4-(3-methoxybenzyl)-N2,N2,N6,N6-tetrakis(2-methoxyethyl)-8-(4-(1-methyl-1H-1,2,4-triazol-3-yl)piperazin-1-yl)pyrimido[5,4-d]pyrimidine-2,4,6-triamine], the IC50 is < 100 nM.

In the case of `COCCN(CCOC)c1nc(N2CCN(c3ncn(C)n3)CC2)c2nc(N(CCOC)CCOC)nc(NCc3cccc(OC(F)(F)F)c3)c2n1` [Compound 223, N2,N2,N6,N6-tetrakis(2-methoxyethyl)-8-(4-(1-methyl-1H-1,2,4-triazol-3-yl)piperazin-1-yl)-N4-(3-(trifluoromethoxy)benzyl)pyrimido[5,4-d]pyrimidine-2,4,6-triamine], the 50% inhibitory concentration (IC50) was < 100 nM.

On to `COCCN(CCOC)c1nc(N2CCN(c3ncn(C)n3)CC2)c2nc(N(CCOC)CCOC)nc(NCc3cccc(C#N)c3)c2n1` [Compound 224, 3-(((2,6-bis(bis(2-methoxyethyl)amino)-8-(4-(1-methyl-1H-1,2,4-triazol-3-yl)piperazin-1-yl)pyrimido[5,4-d]pyrimidin-4-yl)amino)methyl)benzonitrile], for which the IC50 was < 100 nM.
